This assay relates to TF-1 cells. As to the kind of experiment: Post-thaw recovery of TF-1 cells by membrane integrity assay (SYTO 13/ethidium bromide) after cryopreservation. It counts as cell-based, human. The settings on record: TF-1 cells in 10% DMSO/RPMI, conventional cooling at a constant rate of 0.9° C./min, then liquid nitrogen, thawed. How it is done:
FIG. 12. Membrane integrity of TF-1 cells in 10% DMSO cooled at 1° C./min to various subzero temperatures and then either thawed directly (upper curve) or cooled rapidly at 325° C./min in liquid nitrogen (lower curve) before being thawed.
TF-1 cells (ATCC, Manassas, Va.) were grown at 37° C. in 5% CO2 in RPMI 1640 Medium Modified (ATCC) with 10% fetal bovine serum (FBS) (ATCC), and supplemented with 2 ng/mL recombinant human GM-CSF (Stemcell Technologies, Vancouver, Canada). Cells were maintained between 0.1×10^6 and 1×10^6 cells/mL, according to ATCC guidelines. Prior to experiments, cells were washed twice with serum-free RPMI media and incubated overnight. […]
Cell viability was assessed by a membrane integrity assay. […]
The Syto/EB stain was prepared using 40 μL of 2.5 mM EB stock solution and 10 μL of 5 mM Syto® 13 stock solution mixed with 350 μL 1× phosphate-buffered saline (PBS). […] Fluorescent images were captured using a Leitz Dialux 22 fluorescence (440-480 nm) microscope (Leitz, Germany) fitted with a PIXERA DiRactor (Pixera Corporation, Los Gatos, Calif., USA) digital camera. The Viability Assessment Program (The Great Canadian Computer Company, Spruce Grove, Canada), which counts red versus green pixels was used to quantify cell membrane integrity from digital images (Jomha, 2003). […]

On to `C[S+](C)[O-]` [DMSO, dimethyl sulfoxide], for which the “recovery (membrane integrity) after thawing” value worked out at 63.7%.

The values above are taken from patent publication US9078429B2, “Method of cryopreserving stem cells” (The Governors of the University of Alberta, priority 2004, dated 2015).
